From patent US12630498B2 (Genzyme Corporation, priority 2019, dated 2026) come the findings set out here.

By EC50 is commonly meant the concentration needed to bring the measured effect to its halfway point. In general, Emax refers to the maximal effect, on the per cent scale that the assay sets.

This experiment addresses T1, human Cystic Fibrosis Transmembrane Conductance Regulator (CFTR) harboring the ΔF508 mutation (Homo sapiens, UniProt P13569, DEL508-508).
T1 construct: expressed in transfected cells; host or cells: H441 carcinoma line (G418-selected)
Briefly: H441 cell ΔF508-CFTR-HRP cell surface assay (Emax and EC50). In kind it is cell-based. The settings on record: for Emax: NCI-H441, NA = Not active. The gist of the method: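 H441 and 41o- bronchial epithelial cells expressing ΔF508-CFTR with an extracellular-loop-4 HRP tag were treated with a 15-point compound series (24.5–0.001 μM) for two nights, H441 at 27° C, 41o- at 37° C with 0.0005 mg/ml doxycycline. Surface HRP luminescence read; % of maximum VX809 signal and EC50 derived.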

T1 sequence (P13569 with tags, fused parts or gaps DEL508-508): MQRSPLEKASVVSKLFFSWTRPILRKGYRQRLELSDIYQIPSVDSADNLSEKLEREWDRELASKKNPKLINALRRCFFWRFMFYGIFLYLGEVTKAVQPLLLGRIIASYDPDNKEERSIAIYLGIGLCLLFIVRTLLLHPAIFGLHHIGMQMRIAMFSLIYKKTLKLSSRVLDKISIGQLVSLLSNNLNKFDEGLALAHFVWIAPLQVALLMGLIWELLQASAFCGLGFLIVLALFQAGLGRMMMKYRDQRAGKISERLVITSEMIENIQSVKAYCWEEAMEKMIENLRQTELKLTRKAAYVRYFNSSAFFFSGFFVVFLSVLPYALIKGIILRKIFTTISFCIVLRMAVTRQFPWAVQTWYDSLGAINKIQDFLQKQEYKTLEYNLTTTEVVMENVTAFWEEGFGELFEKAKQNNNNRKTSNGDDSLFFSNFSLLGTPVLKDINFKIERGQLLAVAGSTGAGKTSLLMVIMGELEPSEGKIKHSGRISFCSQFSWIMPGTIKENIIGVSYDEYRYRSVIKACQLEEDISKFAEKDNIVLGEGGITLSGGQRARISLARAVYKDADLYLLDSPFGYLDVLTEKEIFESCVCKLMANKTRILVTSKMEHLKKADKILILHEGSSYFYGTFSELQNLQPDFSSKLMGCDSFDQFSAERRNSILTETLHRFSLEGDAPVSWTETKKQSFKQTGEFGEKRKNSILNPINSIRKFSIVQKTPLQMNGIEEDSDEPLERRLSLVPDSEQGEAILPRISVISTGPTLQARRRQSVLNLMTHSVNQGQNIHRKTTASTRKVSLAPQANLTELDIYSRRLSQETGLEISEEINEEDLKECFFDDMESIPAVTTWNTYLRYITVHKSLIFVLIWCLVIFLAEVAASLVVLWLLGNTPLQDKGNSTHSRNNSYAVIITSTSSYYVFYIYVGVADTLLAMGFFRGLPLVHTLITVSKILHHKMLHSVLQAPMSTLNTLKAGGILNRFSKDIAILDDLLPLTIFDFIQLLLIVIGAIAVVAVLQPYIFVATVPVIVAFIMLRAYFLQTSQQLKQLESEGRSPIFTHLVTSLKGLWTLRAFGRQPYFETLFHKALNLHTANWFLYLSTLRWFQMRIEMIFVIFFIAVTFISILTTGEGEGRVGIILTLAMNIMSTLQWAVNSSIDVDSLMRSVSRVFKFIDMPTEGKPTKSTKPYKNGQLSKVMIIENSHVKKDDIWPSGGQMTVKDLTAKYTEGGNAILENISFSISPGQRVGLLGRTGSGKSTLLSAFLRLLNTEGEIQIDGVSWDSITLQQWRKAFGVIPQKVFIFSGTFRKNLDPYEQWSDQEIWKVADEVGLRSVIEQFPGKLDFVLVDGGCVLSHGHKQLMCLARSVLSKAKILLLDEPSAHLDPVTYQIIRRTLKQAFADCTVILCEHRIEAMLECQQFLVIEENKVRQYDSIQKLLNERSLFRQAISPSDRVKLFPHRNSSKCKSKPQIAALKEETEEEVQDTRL

The compound `CCC(C)(C)[C@H](NC(=O)c1ccc2c(F)cc(C)cc2c1OCc1ccc(C(F)(F)F)cc1)C(=O)O` [Example 272, (2S)-2-[[5-fluoro-7-methyl-1-[[4-(trifluoromethyl)phenyl]methoxy]-naphthalene-2-carbonyl]amino]-3,3-dimethyl-pentanoic Acid] had an EC50 of 200 nM and an Emax of 392%.

For `CCC(C)(C)[C@H](NC(=O)c1ccc2c(F)cc(C)cc2c1OCc1ccc(OC(F)(F)F)cc1)C(=O)O` [Example 273, (2S)-2-[[5-fluoro-7-methyl-1-[[4-(trifluoromethoxy)phenyl]methoxy]naphthalene-2-carbonyl]amino]-3,3-dimethyl-pentanoic Acid], the midpoint of the response, the EC50, lay at 100 nM and the Emax came to 339%.

The compound `Cc1ccc2ccc(C(=O)N[C@@H](C(=O)O)C(C)(C)C)c(OCc3ccc(OC(F)(F)F)cc3)c2c1` [Example 289, (R)-3,3-dimethyl-2-(7-methyl-1-((4-(trifluoromethoxy)benzyl)oxy)-2-naphthamido)butanoic Acid] showed an EC50 of 1500 nM and an Emax of 109%.

`CN(C)c1ccc2c(OCc3ccc(C(F)(F)F)cc3)c(C(=O)N[C@H](C(=O)O)C(C)(C)C)ccc2c1` [compound 85, (S)-2-(6-(dimethylamino)-1-((4-(trifluoromethyl)benzyl)oxy)-2-naphthamido)-3,3-dimethylbutanoic Acid]: the EC50 was 1600 nM and the Emax stood at 53%.

In the case of `CCCC(C)(CC)[C@H](NC(=O)c1ccc2ccc(F)cc2c1OCc1ccc(OC(F)(F)F)cc1)C(=O)O` (stereo partly drawn) [compound 290, (2S)-3-ethyl-2-(7-fluoro-1-((4-(trifluoromethoxy)benzyl)oxy)-2-naphthamido)-3-methylhexanoic Acid], the EC50 was 200 nM and the Emax is 225%.

Compound `CC(C)(C)[C@H](NC(=O)c1ccc2ccc(C(F)(F)F)cc2c1OCc1ccc(OC(F)(F)F)cc1)C(=O)O` [compound 292, (S)-3,3-dimethyl-2-(1-((4-(trifluoromethoxy)benzyl)oxy)-7-(trifluoromethyl)-2-naphthamido)butanoic Acid] registered an EC50 of 200 nM and an Emax of 219%.

With `CC(C)(C)[C@H](NC(=O)c1ccc2ccc(C(F)(F)F)cc2c1OCc1ccc(C(F)(F)F)cc1)C(=O)O` [compound 293, (S)-3,3-dimethyl-2-(7-(trifluoromethyl)-1-((4-(trifluoromethyl)benzyl)oxy)-2-naphthamido)butanoic Acid], the EC50 stood at 300 nM and the Emax is 327%.

In turn, `CC1([C@H](NC(=O)c2ccc3ccc(C(F)(F)F)cc3c2OCc2ccc(C(F)(F)F)cc2)C(=O)O)CC1` [compound 298, (S)-2-(1-methylcyclopropyl)-2-(7-(trifluoromethyl)-1-((4-(trifluoromethyl)benzyl)oxy)-2-naphthamido)acetic Acid] returned an EC50 of 700 nM and an Emax of 153%.
